Patent US7741368B2, “Approach to antimicrobial host defense with molecular shields with EPA and DHA analogs” (The Brigham and Women's Hospital, Inc., priority 2001, dated 2010)

Test system: BPI
Conditions: confluent Caco2 intestinal epithelial monolayers, 1 μM, 24 hr, β actin internal standard (FIG. 5)

## CC[C@@H](O)/C=C/C=C\C[C@@H](O)/C=C/C=C/C=C\[C@@H](O)CCCC(=O)O [5S,12R,18R-tri-HEPE]
  fold induction of BPI mRNA: BPI induction
